“And” between values parts separate entries of the source, which are not always exact repeats. Equal values may be shown once. Read-outs that look alike come from different tables or passages of the source.
Columns and labels:
[1] = CellTiter-Glo luminescent cell viability assay (ATP), H27; format: cell-based, human; conditions: human; H27 cells, 48 h, ATP luminescence; read-out: Cytotoxicity IC50 H27
Description: (§1) The number of viable cells based on ATP quantification was determined using the CellTiter-Glo® luminescent cell viability assay (Promega, Madison, WI, USA, lot no. 0000200446). Briefly, cells were seeded into white, flat-bottomed, sterile 96-well plates (PerkinElmer, Beaconsfield, UK) and incubated for 24 h. For A-375 cells, we used 10,000 cells/well, and for H27 cells, we used 7500 cells/well. Test compounds were diluted in assay medium (Glutamax DMEM with 5% FBS (Gibco)) and added to the plates in two-fold dilutions starting at 100 µM. Negative controls (0.5% DMSO) and positive controls (camptothecin, 1.6 µM for the A-375 cells and 50 µM for the H27 cells) were also included, and the plates were incubated for an additional 48 h (95% humidity, 5% CO2 at 37 °C). After incubation, the cells were washed with PBS. To each well, we then added 50 µL of assay medium plus 50 µL of CellTiter-Glo® reagent. The samples were then shaken for 2 min at 100 rpm at 25 °C, followed by a further 10 min at 25 °C to stabilize the luminescence signal. Luminescence was measured using a VarioSkan LUX multimode microplate reader (Thermo Fisher Scientific, Vantaa, Finland).

H27 cells = test: as above; format: cell-based, human; conditions: IC50 cytotoxicity/IC50 P. aeruginosa growth inhibition in M9 acetate
Description: as §1

[2] = CytoTox 96 LDH release cytotoxicity assay, U937; format: cell-based, human; conditions: human; U937 cells, LDH release
Description: (§2) The CytoTox 96® nonradioactive cytotoxicity assay (Promega, Madison, WI, USA) was performed to determine the number of cells affected by necrosis measuring LDH release. A U937 cell suspension (5 × 10^5 cells/mL) was prepared, and 99.5 µL of this suspension were added to the wells of clear, sterile, 96-well, U-bottomed plates (Greiner, Dungannon, UK). The test compounds (0.5 µL of a 200 × concentrated stock) or 0.5% DMSO (control) were added to each well, and the plates were shaken for 1 min at 100 rpm, followed by 3.5 h at 37 °C with 5% CO2. At this point, CytoTox 96® 10× lysis solution was added to the wells reserved for total lysis. These samples represented the LDH released following complete cell lysis. After 30 min, 50 µL of supernatant from each test well and total lysis well was transferred to new 96-well plates (Thermo Fisher Scientific, Bishop’s Stortford, UK). Prethawed CytoTox 96® buffer was mixed with the CytoTox 96® substrate, and 50 µL were added into each well. The plates were incubated for 10 min in darkness at 25 °C. CytoTox 96® stop buffer (50 µL) was added, and the plates were incubated for a further 15 min. LDH release was quantified by measuring A492 nm in a CLARIOstar® multimode microplate reader (BMG Labtech, Aylesbury, UK).

U937 cells = test: CytoTox 96 LDH release cytotoxicity assay, U937; format: cell-based, human; conditions: IC50 cytotoxicity/IC50 P. aeruginosa growth inhibition in M9 acetate
Description: as §2

P. aeruginosa = system: P. aeruginosa; parameters: method as in Fahnoe et al. [13]; conditions: ref Fahnoe et al. [13], cited from earlier work
MSPa [3] = target: T1, MSPa (Pseudomonas aeruginosa, UniProt Q9I636); test: Kinetic mode of action on MSPa; format: biochemical; parameters: made in house
T1 sequence (Q9I636 whole entry): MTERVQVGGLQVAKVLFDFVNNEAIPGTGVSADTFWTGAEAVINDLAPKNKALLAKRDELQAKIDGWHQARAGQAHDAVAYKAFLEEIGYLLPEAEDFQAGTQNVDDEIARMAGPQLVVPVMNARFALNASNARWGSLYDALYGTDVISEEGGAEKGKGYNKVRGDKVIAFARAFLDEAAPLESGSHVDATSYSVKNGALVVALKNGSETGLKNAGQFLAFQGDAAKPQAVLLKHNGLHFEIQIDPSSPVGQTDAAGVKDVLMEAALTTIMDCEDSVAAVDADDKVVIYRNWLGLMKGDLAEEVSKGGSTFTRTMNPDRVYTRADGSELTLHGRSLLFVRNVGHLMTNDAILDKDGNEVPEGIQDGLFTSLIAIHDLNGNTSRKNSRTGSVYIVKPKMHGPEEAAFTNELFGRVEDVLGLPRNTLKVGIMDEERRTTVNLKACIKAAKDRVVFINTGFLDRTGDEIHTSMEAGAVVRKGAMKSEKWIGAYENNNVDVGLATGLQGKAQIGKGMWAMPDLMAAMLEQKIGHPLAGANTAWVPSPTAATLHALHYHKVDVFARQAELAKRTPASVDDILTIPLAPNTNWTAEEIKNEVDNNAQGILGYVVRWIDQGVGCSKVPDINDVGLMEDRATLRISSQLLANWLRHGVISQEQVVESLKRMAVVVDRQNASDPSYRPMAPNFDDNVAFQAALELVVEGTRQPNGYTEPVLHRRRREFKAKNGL
Description: The enzymatic activity of purified ICLPa and MSPa was assayed essentially as previously described. Compounds were added to the reaction mixtures (minus substrates) and incubated for 5 min at 37 °C. The enzyme concentration in the reaction mixtures was 170 nM for ICL and 25 nM for MS (based on the concentration of the monomer in each case). […] The reactions were initiated by the addition of pH-adjusted substrates, and the initial rates were recorded as A324 nm (for ICLPa) and A412 nm (for MSPa) using a Biospectrometer (Eppendorf, Stevenage, UK). Substrate turnover was calculated from the molar extinction coefficient of the assay products: Glyoxylate-phenylhydrazone (16,800/M/cm) for ICLPa and 2-nitro-5-thiobenzoic acid (14,150/M/cm) for MSPa.
The mode of action of SB002 on MSPa and ICLPa was determined by titrating the respective substrates of each enzyme in the presence of three fixed concentrations of SB002 (selected to lie around the measured IC50 value) and measuring the reaction rates as outlined in Section 4.3. Double-reciprocal plots and best-fit inhibition models (GraphPad Prism v. 7.04) were used to assess the mode of inhibition. Inhibition constants were calculated using GraphPad Prism v. 7.04 (GraphPad Software, Inc., La Jolla, CA, USA). Each data point represents the mean ± SD for three independent replicates.

MSPa [4] = target: T1, MSPa; test: Isothermal titration calorimetry, MSPa
Description: (§3) Protein samples were dialyzed (2 × 1 L) in a D-tube dialyzer (Merck, Watford, UK) for 3 h in 25 mM Tris-HCl, 100 mM NaCl, and 0.1 mM TCEP (pH 7.5). […] The syringe and the cell both contained a final concentration of 0.1% DMSO. The injection parameters for MSPa were: Reference power 15 µcal/sec, initial injection of 3 µL (3.6 sec per injection) with subsequent injections of 10 µL (12 sec per injection). Injections were spaced by 150 sec with a filter period of 2 sec. The injection parameters for ICLPa were: Reference power 15 µcal/sec, initial injection of 3 µL (3.6 sec per injection) with subsequent injections of 8 µL (10 sec per injection). Injections were spaced by 170 sec with a filter period of 2 sec. Data were analyzed in NITPIC (NITPIC, Bethesda, MD, USA) [31] for baseline calculations and then fit for thermodynamic parameters using the OneSite model in Origin 7.0 software (Origin Software Solutions, Bristol, UK). Each titration was carried out in duplicate.

ICLPa = target: T2, ICLPa (Pseudomonas aeruginosa, UniProt Q9I0K4); test: Isothermal titration calorimetry, ICLPa; conditions: ITC
T2 sequence (Q9I0K4 1-531): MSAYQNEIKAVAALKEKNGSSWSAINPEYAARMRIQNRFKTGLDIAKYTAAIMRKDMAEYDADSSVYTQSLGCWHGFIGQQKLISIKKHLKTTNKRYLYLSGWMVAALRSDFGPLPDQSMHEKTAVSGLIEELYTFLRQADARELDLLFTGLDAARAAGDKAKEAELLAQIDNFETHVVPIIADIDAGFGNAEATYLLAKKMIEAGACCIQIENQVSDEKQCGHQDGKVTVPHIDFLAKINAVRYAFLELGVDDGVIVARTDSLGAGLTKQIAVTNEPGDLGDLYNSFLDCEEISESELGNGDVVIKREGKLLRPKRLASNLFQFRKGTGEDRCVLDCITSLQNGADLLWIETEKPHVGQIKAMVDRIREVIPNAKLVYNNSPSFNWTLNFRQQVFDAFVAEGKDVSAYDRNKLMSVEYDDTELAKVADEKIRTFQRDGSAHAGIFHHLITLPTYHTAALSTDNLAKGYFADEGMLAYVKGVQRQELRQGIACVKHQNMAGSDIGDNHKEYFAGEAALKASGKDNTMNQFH
Description: as §3

[5] = CellTiter-Glo luminescent cell viability assay (ATP), A-375; format: cell-based, human; conditions: human; A-375 cells, 48 h, ATP luminescence; read-out: Cytotoxicity IC50 A-375
Description: as §1

A-375 cells = test: as above; format: cell-based, human; conditions: IC50 cytotoxicity/IC50 P. aeruginosa growth inhibition in M9 acetate
Description: as §1

[6] = ITC, 25 °C, reverse titration, MSPa
[7] = 25 °C, reverse titration, ICLPa

In the case of `CC(C)(C)OC(=O)/N=C(\NC(=O)OC(C)(C)C)Nc1cc(Cl)ccn1` [SB002], the IC50 at 48 h [1] is reported as 98.4 µM, the “Therapeutic index H27” value (H27 cells) is reported as 93 and 93.73 and the IC50 at 3.5 h [2] is reported as 18.2 µM. For the same molecule, the “Therapeutic index U937” value (U937 cells) was 17 and 17.31, the MIC (P. aeruginosa; conversion of 8 μg/mL) was 21.6 µM and the MIC (P. aeruginosa) was 8 µg/mL. For the same molecule, the Ki (MSPa [3]) was 4.5 µM, the “Mode of inhibition of MSPa with respect to acetyl-CoA” value (MSPa [3]; acetyl-CoA varied, saturating (200 µM) glyoxylate) was “competitive mode of inhibition” and the “Ki’ (binding to the ES complex), MSPa” value (MSPa [3]; glyoxylate varied, 200 µM acetyl-CoA) was 3.9 µM. For the same molecule, the “Mode of inhibition of MSPa with respect to glyoxylate” value (MSPa [3]; glyoxylate varied, saturating (200 µM) acetyl-CoA) was “uncompetitive inhibition at the lower inhibitor concentrations tested, and noncompetitive inhibition at the higher concentration of inhibitor”, the Kd (MSPa [4]) was 0.0286 ± 0.0016 µM and the Ka (MSPa [4]; [6]) was 3.56e+07 ± 1.86e+06 M. The ΔG (MSPa [4]; [6]) was −10.31 ± 1.79×10^−3 kcal/mol, the ΔH (MSPa [4]; [6]) was −0.47 ± 1.79×10^−3 kcal/mol and the “−TΔS” value (MSPa [4]; [6]) was -9.84 kcal/mol. For the same molecule, the “n (binding sites)” value (MSPa [4]; ITC, per monomeric unit of MSPa) was 0.35 and 0.35 ± 8.41 × 10^−4, the Ka (ICLPa; [7]) was 718000 ± 149000 M and the Kd (ICLPa; [7]) was 1.43 µM. The ΔG (ICLPa; [7]) was −7.98 ± 3.44×10^−1 kcal/mol, the ΔH (ICLPa; [7]) was −4.22 ± 3.44×10^−1 kcal/mol and the “−TΔS” value (ICLPa; [7]) was -3.76 kcal/mol. For the same molecule, the “n (binding sites)” value (ICLPa; per monomeric unit of ICLPa) was 0.53 and 0.53 ± 3.25 × 10^−2.

For `CC(C)(C)OC(=O)/N=C(\NC(=O)OC(C)(C)C)Nc1cc(C#N)ccn1` [SB023], the IC50 at 48 h [5] was 106 µM, the “Therapeutic index A-375” value (A-375 cells) was 11.95 and the IC50 at 48 h [1] was 205 µM. The “Therapeutic index H27” value (H27 cells) was 23.27, the IC50 at 3.5 h [2] was 3220 µM and the “Therapeutic index U937” value (U937 cells) was 364 and 364.37.
